This note sets out measurements from US20220241409A1, “WATER SOLUBLE ADJUVANT AND COMPOSITION CONTAINING SAME” (Sumitomo Dainippon Pharma Co., Ltd., priority 2019, published 2022).

Each structure is given as a SMILES string.

The target in one test is T1, human TLR7 (Homo sapiens, UniProt Q9NYK1).
T1 construct: expresses full-length human TLR7 and secretory alkaline phosphatase (SEAP) reporter gene; host or cells: TLR7/NF-κB/SEAPorter HEK293 cell line
T1 sequence (Q9NYK1 27-1049): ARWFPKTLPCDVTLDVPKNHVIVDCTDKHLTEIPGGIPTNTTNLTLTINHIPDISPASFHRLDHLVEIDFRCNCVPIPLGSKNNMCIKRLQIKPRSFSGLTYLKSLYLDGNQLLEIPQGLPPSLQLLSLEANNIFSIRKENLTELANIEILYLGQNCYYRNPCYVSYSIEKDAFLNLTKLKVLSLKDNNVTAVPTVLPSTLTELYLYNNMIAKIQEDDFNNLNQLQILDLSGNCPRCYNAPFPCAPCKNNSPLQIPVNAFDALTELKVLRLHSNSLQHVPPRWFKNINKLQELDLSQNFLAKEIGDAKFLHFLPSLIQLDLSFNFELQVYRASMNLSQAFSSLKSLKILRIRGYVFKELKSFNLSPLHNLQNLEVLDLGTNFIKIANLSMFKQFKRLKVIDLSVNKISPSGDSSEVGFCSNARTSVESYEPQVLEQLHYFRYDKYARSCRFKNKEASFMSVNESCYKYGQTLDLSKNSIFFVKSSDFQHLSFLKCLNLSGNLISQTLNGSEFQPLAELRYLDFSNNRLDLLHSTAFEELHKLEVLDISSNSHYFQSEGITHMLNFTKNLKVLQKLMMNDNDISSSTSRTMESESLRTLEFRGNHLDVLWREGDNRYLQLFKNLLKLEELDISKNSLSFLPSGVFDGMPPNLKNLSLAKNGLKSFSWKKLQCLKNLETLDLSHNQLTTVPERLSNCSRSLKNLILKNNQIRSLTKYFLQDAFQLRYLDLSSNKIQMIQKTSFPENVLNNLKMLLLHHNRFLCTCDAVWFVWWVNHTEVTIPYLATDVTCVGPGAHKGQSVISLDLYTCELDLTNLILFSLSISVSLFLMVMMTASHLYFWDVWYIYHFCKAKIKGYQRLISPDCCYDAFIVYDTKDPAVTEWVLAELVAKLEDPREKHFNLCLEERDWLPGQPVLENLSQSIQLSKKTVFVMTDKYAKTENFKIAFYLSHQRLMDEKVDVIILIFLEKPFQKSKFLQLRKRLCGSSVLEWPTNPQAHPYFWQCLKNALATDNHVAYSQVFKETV
Nature of the test: Human TLR7 reporter gene assay (Test 1). It is filed as cell-based. The following applies: half-maximal SEAP induction, TLR7/NF-κB/SEAPorter HEK293 cell line, overnight 37° C., 0.1% DMSO. The text has this: TLR7/NF-κB/SEAPorter™ HEK293 cell line (Imgenex Corporation) is a stably co-transfected cell line which expresses full-length human TLR7 and secretory alkaline phosphatase (SEAP) reporter gene under the transcriptional regulation of an NF-κB response element. The TLR7 expression of the cell line has been already tested by flow cytometry. Transfectants with stable expression were selected using the antibiotic blasticidin and Geneticin. TLR signaling leads to the translocation of NF-κB and the activation of the promoter results in expression of the SEAP gene. TLR7-specific activation was assessed by determining the level of SEAP produced following overnight incubation of the cells at 37° C. with each compound prepared in Examples and Reference examples in the presence of 0.1% (v/v) dimethylsulfoxide (DMSO). The human TLR7 activity for the present compound was assessed by human TLR7 reporter gene assay, and the results are shown in Tables 6 and 7 as the compound concentration which produced half of the maximal level of SEAP induction (EC50).

In the next test the target is T2, mouse TLR7 (Mus musculus, UniProt P58681).
T2 construct: expresses full-length mouse TLR7 and secretory SEAP reporter gene; host or cells: HEK-Blue mTLR7 cell line
T2 sequence (P58681 27-1050): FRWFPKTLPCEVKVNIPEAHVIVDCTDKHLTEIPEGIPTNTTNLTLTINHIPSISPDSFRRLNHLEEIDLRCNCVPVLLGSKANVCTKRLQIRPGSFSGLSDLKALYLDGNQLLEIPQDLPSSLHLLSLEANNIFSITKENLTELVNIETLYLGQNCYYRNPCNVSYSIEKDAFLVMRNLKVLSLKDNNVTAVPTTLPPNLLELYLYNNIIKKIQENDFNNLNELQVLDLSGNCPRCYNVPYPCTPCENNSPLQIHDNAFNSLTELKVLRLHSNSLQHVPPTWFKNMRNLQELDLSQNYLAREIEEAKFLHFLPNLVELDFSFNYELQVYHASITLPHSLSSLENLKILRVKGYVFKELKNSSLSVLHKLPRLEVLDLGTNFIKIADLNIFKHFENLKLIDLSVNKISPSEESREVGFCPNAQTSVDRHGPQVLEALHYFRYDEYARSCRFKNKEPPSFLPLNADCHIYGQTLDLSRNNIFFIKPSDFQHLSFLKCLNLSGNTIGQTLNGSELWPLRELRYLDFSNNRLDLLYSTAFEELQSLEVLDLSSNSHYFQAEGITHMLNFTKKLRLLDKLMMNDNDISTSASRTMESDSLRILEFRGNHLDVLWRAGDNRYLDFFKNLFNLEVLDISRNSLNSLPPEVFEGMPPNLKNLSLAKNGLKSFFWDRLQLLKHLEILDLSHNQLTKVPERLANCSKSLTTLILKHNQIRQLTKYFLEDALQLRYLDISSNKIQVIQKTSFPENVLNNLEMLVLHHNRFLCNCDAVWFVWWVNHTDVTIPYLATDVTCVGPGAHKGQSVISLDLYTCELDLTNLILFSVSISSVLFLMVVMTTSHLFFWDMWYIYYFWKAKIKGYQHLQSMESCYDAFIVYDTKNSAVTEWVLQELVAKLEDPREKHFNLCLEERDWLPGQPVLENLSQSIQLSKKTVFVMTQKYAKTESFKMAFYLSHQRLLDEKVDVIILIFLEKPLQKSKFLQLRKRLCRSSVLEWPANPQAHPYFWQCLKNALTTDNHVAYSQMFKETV
Put plainly: Mouse TLR7 reporter gene assay (Test 2). It is filed as cell-based. The following applies: half-maximal SEAP induction, HEK-Blue mTLR7 cell line, overnight 37° C., 0.1% DMSO. An excerpt:
HEK-Blue™ mTLR7 cell line (Invivogen) is a stably co-transfected cell line which expresses full-length mouse TLR7 and secretory SEAP reporter gene under the transcriptional regulation of an NF-κB response element. The TLR7 expression of the cell line has been already tested by RT-PCR. Transfectants with stable expression were selected using the antibiotic blasticidin and Zeocin. TLR signaling leads to the translocation of NF-κB and the activation of the promoter results in expression of the SEAP gene. TLR7-specific activation was assessed by determining the level of SEAP produced following overnight incubation of the cells at 37° C. with each compound prepared in Examples and Reference examples in the presence of 0.1% (v/v) DMSO. The mouse TLR7 activity for the present compound was assessed by mouse TLR7 reporter gene assay, and the results are shown in Tables 8 and 9 as the compound concentration which produced half of the maximal level of SEAP induction (EC50).
For orientation: A reporter such as luciferase makes a cellular process visible.

Regarding `CCCCOc1nc(N)c2[nH]c(=O)n(Cc3ccc(CN(C)CCOCCOCCOCCOCCO)nc3)c2n1` [Example 2, 6-amino-2-butoxy-9-{[6-(16-hydroxy-2-methyl-5,8,11,14-tetraoxa-2-azahexadecan-1-yl)pyridin-3-yl]methyl}-7,9-dihydro-8H-purin-8-one-trifluoroacetate], the half-maximal effective concentration (EC50) – broadly, the midpoint of the concentration-response curve – on human TLR7 (Table 6, Examples) amounted to 774 nM; at mouse TLR7 (Table 8, Examples), 510 nM.

Regarding `CCCCOc1nc(N)c2[nH]c(=O)n(Cc3ccc(CN(C)CCOCCOCCOCCOCCO)cc3)c2n1` [Example 3, 6-amino-2-butoxy-9-{[4-(16-hydroxy-2-methyl-5,8,11,14-tetraoxa-2-azahexadecan-1-yl)phenyl]methyl}-7,9-dihydro-8H-purin-8-one], the EC50 on human TLR7 (Table 6, Examples) is 24 nM; at mouse TLR7 (Table 8, Examples) it was 42 nM.

On to `CCCCOc1nc(N)c2[nH]c(=O)n(Cc3ccc(CNC)nc3)c2n1` [Reference example 12, reference compound], for which the half-maximal effective concentration (EC50) was 578 nM at human TLR7 (Table 7, Reference examples) and 251 nM on mouse TLR7 (Table 9, Reference examples).

With `CCCCOc1nc(N)c2[nH]c(=O)n(Cc3ccc(CNC)cc3)c2n1` [Reference example 14, reference compound], the EC50 is 12 nM on human TLR7 (Table 7, Reference examples) and 23 nM at mouse TLR7 (Table 9, Reference examples).
